EP4745128A1, “COMPOUND, PHARMACEUTICAL COMPOSITION COMPRISING SAME, AND USE THEREOF” (Shenzhen Zhongge Biological Technology Co., Ltd., priority 2023, dated 2025)

Columns and labels:
[1] = Phase 1 data from healthy subjects; cited from earlier work
[2] = tested on: HEK293T/17-ATF4 uORF-Luc-Puro monoclonal cells; assay: Cellular activity assay: ATF4 luciferase reporter, thapsigargin-induced stress; type: cell-based; conditions: Homo sapiens, HEK-293T; ATF4 reporter expression; 50 nM thapsigargin, 6 h incubation
From the text: The ATF4 luciferase reporter plasmid consists of two components: the 5' untranslated region sequence of the ATF4 gene and the luciferase encoding sequence. Specifically, the ATF4 5' untranslated region sequence (NCBI Database accession number BC022088.2) containing two upstream open reading frames (uORFs) and the firefly luciferase encoding gene were cloned into the pLVX-Puro vector (Unibio, VT1465). The packaging plasmids for lentivirus are psPAX2 (Unibio, VT1444) and pMD2.G (Unibio, VT1443). The three plasmids above were co-transfected into HEK293T/17 cells using X-tremeGENE 9 DNA transfection reagent, and the lentivirus-containing culture medium was collected 48 hours post-transfection. The HEK293T/17 cells transduced with the lentivirus were selected using 1 µg/mL puromycin, followed by obtaining a monoclonal cell line via limited dilution.
Using this cell line, the translational regulation of ATF4 can be detected via […], and the activity of the eIF2B activator can be tested. The specific experimental procedure was as follows: Seed 6,000 HEK293T/17-ATF4 uORF-Luc-Puro monoclonal cells in a 384-well plate and allow the cells to adhere overnight. The test compounds were dissolved in DMSO and added along with 50 nM thapsigargin into the cell culture medium, followed by incubation for 6 h. Thapsigargin was used to induce cellular stress, thereby upregulating translation of the ATF4 protein. After 6 hours of treatment, cells were lysed using the One-Glo Luciferase Assay Kit (Promega #E6120), then the luminescence values were measured using the LUM program of the EnVision 2104 plate reader.
The relative expression level of the ATF4 reporter gene (ATF4 reporter expression %) was calculated as follows: • ATF4 reporter expression %=(ave_sample-ave_vc)/(ave_pc-ave_vc)*100%. • ave_vc: mean signal value of negative control • ave_pc: mean signal value of positive control • ave_sample: mean signal value of sample
The EC50 value was calculated by fitting a dose-response curve: • The correspondence between the relative expression level of the ATF4 reporter gene and the compound concentration was fitted using the nonlinear regression log(inhibitor) vs. response - variable slope (four parameters) approach in GraphPad 9 software. • X axis: log of compound concentration; Y: relative expression level of ATF4 reporter gene. • Y = Bottom + (Top−Bottom)/(1+10^(∧)((LogEC50−X)*HillSlope)) [formula]

mouse models = conditions: cited from earlier work
[3] = Pharmacokinetic assessment in mice; type: in vivo; conditions: plasma
Method: The test compound was dissolved in a solvent to prepare a clear solution or homogeneous suspension. Three mice per group were administered 1 mg/kg intravenously in the tails and 30 mg/kg orally (PO). Blood samples were collected at 0.083 h, 0.25 h, 0.5 h, 1 h, 2 h, 4 h, 8 h, and 24 h post intravenous administration, and at 0.25 h, 0.5 h, 1 h, 2 h, 4 h, 6 h, 8 h, and 24 h post oral administration. Plasma samples were centrifuged to obtain the supernatant, which was prepared as samples for quantitative analysis by LC/MS/MS. Table 2 PK Properties of Exemplary Compound 3 in Mice

model animals = conditions: after three days of oral administration; cited from earlier work

For `O=C(COc1ccc(Cl)cc1)NC12CC(c3nnc([C@H]4C[C@@H](OC(F)(F)F)C4)o3)(C1)C2` [DNL-343], which safety and tolerability [1] is on record?
The safety and tolerability was “safe and well-tolerated”.

With `O=C(COc1ccc(Cl)c(F)c1)N[C@H]1CC[C@H](Nc2nccnc2O[C@H]2C[C@@H](OC(F)(F)F)C2)CC1` [Compound 1] as the molecule, how does the EC50 [2] read?
Its EC50 is 0.01 to 0.1 µM.

With `O=C(COc1ccc(Cl)cc1)NC1CCC(NC(=O)COc2ccc(Cl)cc2)CC1` (stereo not drawn) [ISRIB] as the molecule, how does the long-term memory (mouse models) read?
Its long-term memory is “improve long-term memory”.

Which EC50 [2] does the source give for `O=C(CO[C@H]1C[C@@H](OC(F)(F)F)C1)NC12CC(Nc3nccnc3O[C@H]3C[C@@H](OC(F)(F)F)C3)(C1)C2` [Compound 3] here?
Its EC50 is 0.001 to 0.01 µM.

What about the AUC(0-t) ([3]; mouse IV (1 mg/kg)) of the same molecule?
Its AUC(0-t) is 6.32 µg·h/mL.

What about the C0 ([3]; mouse IV (1 mg/kg)) of the same molecule?
The C0 was 2620 ng/mL.

And the clearance ([3]; mouse IV (1 mg/kg))?
The clearance was 2.49 mL/min/kg.

And the half-life ([3]; mouse IV (1 mg/kg))?
The half-life was 7.37 h.

What about the Vd ([3]; mouse IV (1 mg/kg), read-out: Vss) of the same molecule?
Its Vd is 1410 L/kg.

And the AUC(0-t) ([3]; mouse PO (30 mg/kg))?
The AUC(0-t) was 217 µg·h/mL.

What about the Cmax ([3]; mouse PO (30 mg/kg)) of the same molecule?
Its Cmax is 20100 ng/mL.

And the Tmax ([3]; mouse PO (30 mg/kg))?
The Tmax was 2.33 h.

And the bioavailability ([3]; mouse PO (30 mg/kg))?
Its bioavailability is 114%.

And the half-life ([3]; mouse PO (30 mg/kg))?
Its half-life is 8.52 h.

With `O=C(COc1ccc(Cl)c(F)c1)N[C@H]1CC[C@H](Nc2ncccc2O[C@H]2C[C@@H](OC(F)(F)F)C2)CC1` [Compound 2] as the molecule, how does the EC50 [2] read?
Its EC50 is over 0.1 µM.

With `NC(CO)(CO)CO.O=C(COc1ccc(Cl)c(F)c1)NC12CCC(NC(=O)COc3ccc(Cl)c(F)c3)(CC1)[C@@H](OCOP(=O)([O-])O)C2.[Na+]` [ABBV-CLS-7262] as the molecule, how does the brain function (model animals) read?
Its brain function is “restored to youthful levels”.

Which EC50 [2] does the source give for `O=C(CO[C@H]1C[C@@H](OC(F)(F)F)C1)N[C@H]1CC[C@H](Nc2nccnc2O[C@H]2C[C@@H](OC(F)(F)F)C2)CC1` [Compound 5] here?
Its EC50 is over 0.1 µM.

For `FC(F)(F)OC1CN(c2nnc([C@H]3CC[C@H](Nc4nccnc4O[C@H]4C[C@@H](OC(F)(F)F)C4)CC3)o2)C1` [Compound 4], which EC50 [2] is on record?
Its EC50 is over 0.1 µM.
